According to the supplement of paper PMC10307832:

Columns and labels:
Test in all cases: relative viability (nuclei count vs DMSO), 5 days (fraction); higher = more cells survive
ABC-1 = test system: ABC-1
Procedure, shortened: (§1)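 Cells from lung cancer lines were seeded into 1536-well plates and, one day later, dosed by pin tool. Treatments were either a single drug or a fixed dose of an anchor drug with five library-drug doses (not always all listed) in √10 steps. After 5 days, nuclei were stained in a one-step fixation (final 0.05% Triton X-100, 1% formaldehyde, 1 ug/ml Hoechst) and counted on 4× images, and relative viability is the treated-to-vehicle nuclei ratio, as the median of duplicate plates.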

LK-2 = test system: LK-2
Procedure, shortened: as §1

LOU-NH91 = test system: LOU-NH91
Procedure, shortened: as §1

NCI-H1648 = test system: NCI-H1648
Procedure, shortened: as §1

NCI-H1666 = test system: NCI-H1666
Procedure, shortened: as §1

NCI-H1703 = test system: NCI-H1703
Procedure, shortened: as §1

NCI-H1755 = test system: NCI-H1755
Procedure, shortened: as §1

A549 = test system: A549
Procedure, shortened: as §1

Calu-6 = test system: Calu-6
Procedure, shortened: as §1

EBC-1 = test system: EBC-1
Procedure, shortened: as §1

IA-LM = test system: IA-LM
Procedure, shortened: as §1

NCI-H1299 = test system: NCI-H1299
Procedure, shortened: as §1

NCI-H1623 = test system: NCI-H1623
Procedure, shortened: as §1

NCI-H1650 = test system: NCI-H1650
Procedure, shortened: as §1

NCI-H2228 = test system: NCI-H2228
Procedure, shortened: as §1

`COCC1(CO)C(=O)C2CCN1CC2` (stereo unspecified) [PRIMA-1MET] + NC(=O)Nc1cc(-c2cccc(F)c2)sc1C(=O)N[C@H]1CCCNC1 [AZD7762] (partner 0.2 µM) gave a relative viability (ABC-1; first compound 0.2 µM) of 0.97, a relative viability (ABC-1; first compound 0.6325 µM) of 0.624 and a relative viability (ABC-1; first compound 2 µM) of 0.952. For the same compound, the relative viability (ABC-1; first compound 6.325 µM) was 0.775, the relative viability (ABC-1; first compound 20 µM) was 0.376 and the relative viability (LK-2; first compound 0.2 µM) was 0.469. For the same compound, the relative viability (LK-2; first compound 0.6325 µM) was 0.405, the relative viability (LK-2; first compound 2 µM) was 0.182 and the relative viability (LK-2; first compound 6.325 µM) was 0.124. The relative viability (LK-2; first compound 20 µM) was 0.0604, the relative viability (LOU-NH91; first compound 0.2 µM) was 0.828 and the relative viability (LOU-NH91; first compound 0.6325 µM) was 0.74. The relative viability (LOU-NH91; first compound 2 µM) was 0.658, the relative viability (LOU-NH91; first compound 6.325 µM) was 0.71 and the relative viability (LOU-NH91; first compound 20 µM) was 0.386. It also gave a relative viability (NCI-H1648; first compound 0.2 µM) of 0.729, a relative viability (NCI-H1648; first compound 2 µM) of 0.655 and a relative viability (NCI-H1648; first compound 20 µM) of 0.663. It also gave a relative viability (NCI-H1666; first compound 0.2 µM) of 0.841, a relative viability (NCI-H1666; first compound 0.6325 µM) of 0.688 and a relative viability (NCI-H1666; first compound 2 µM) of 0.798. The relative viability (NCI-H1666; first compound 6.325 µM) was 0.817, the relative viability (NCI-H1666; first compound 20 µM) was 0.728 and the relative viability (NCI-H1703; first compound 0.6325 µM) was 0.158. For the same compound, the relative viability (NCI-H1703; first compound 6.325 µM) was 0.121, the relative viability (NCI-H1703; first compound 20 µM) was 0.0239 and the relative viability (NCI-H1755; first compound 0.2 µM) was 0.414. The relative viability (NCI-H1755; first compound 0.6325 µM) was 0.4, the relative viability (NCI-H1755; first compound 2 µM) was 0.392 and the relative viability (NCI-H1755; first compound 6.325 µM) was 0.557. For the same compound, the relative viability (NCI-H1755; first compound 20 µM) was 0.446.

`COCC1(CO)C(=O)C2CCN1CC2` (stereo unspecified) [PRIMA-1MET] + COc1cc2c(Oc3ccc(NC(=O)C4(C(=O)Nc5ccc(F)cc5)CC4)cc3F)ccnc2cc1OCCCN1CCOCC1 [Foretinib] (partner 0.25 µM) gave a relative viability (A549; first compound 0.2 µM) of 1.02, a relative viability (A549; first compound 0.6325 µM) of 0.834 and a relative viability (A549; first compound 2 µM) of 1.07. It also gave a relative viability (A549; first compound 6.325 µM) of 0.807, a relative viability (A549; first compound 20 µM) of 0.894 and a relative viability (ABC-1; first compound 0.2 µM) of 1.19. It also gave a relative viability (ABC-1; first compound 0.6325 µM) of 0.937, a relative viability (ABC-1; first compound 2 µM) of 1.25 and a relative viability (ABC-1; first compound 6.325 µM) of 1.03. The relative viability (ABC-1; first compound 20 µM) was 0.505, the relative viability (Calu-6; first compound 0.2 µM) was 0.918 and the relative viability (Calu-6; first compound 0.6325 µM) was 0.649. It also gave a relative viability (Calu-6; first compound 2 µM) of 0.899, a relative viability (Calu-6; first compound 6.325 µM) of 0.904 and a relative viability (Calu-6; first compound 20 µM) of 0.335. The relative viability (EBC-1; first compound 0.2 µM) was 0.101, the relative viability (EBC-1; first compound 0.6325 µM) was 0.0986 and the relative viability (EBC-1; first compound 2 µM) was 0.105. For the same compound, the relative viability (EBC-1; first compound 6.325 µM) was 0.107, the relative viability (EBC-1; first compound 20 µM) was 0.122 and the relative viability (IA-LM; first compound 0.2 µM) was 1.07. It also gave a relative viability (IA-LM; first compound 0.6325 µM) of 1.12, a relative viability (IA-LM; first compound 2 µM) of 1.35 and a relative viability (IA-LM; first compound 6.325 µM) of 1.06. The relative viability (IA-LM; first compound 20 µM) was 1.07, the relative viability (LK-2; first compound 0.2 µM) was 1.4 and the relative viability (LK-2; first compound 0.6325 µM) was 1.16. It also gave a relative viability (LK-2; first compound 2 µM) of 0.567, a relative viability (LK-2; first compound 6.325 µM) of 0.752 and a relative viability (LK-2; first compound 20 µM) of 0.147. It also gave a relative viability (LOU-NH91; first compound 0.2 µM) of 1.04, a relative viability (LOU-NH91; first compound 0.6325 µM) of 0.992 and a relative viability (LOU-NH91; first compound 2 µM) of 0.861. The relative viability (LOU-NH91; first compound 6.325 µM) was 1, the relative viability (LOU-NH91; first compound 20 µM) was 0.8 and the relative viability (NCI-H1299; first compound 0.2 µM) was 1.13. For the same compound, the relative viability (NCI-H1299; first compound 0.6325 µM) was 1.12, the relative viability (NCI-H1299; first compound 2 µM) was 1.19 and the relative viability (NCI-H1299; first compound 6.325 µM) was 1.12. For the same compound, the relative viability (NCI-H1299; first compound 20 µM) was 1.02, the relative viability (NCI-H1623; first compound 0.2 µM) was 0.789 and the relative viability (NCI-H1623; first compound 0.6325 µM) was 0.819. It also gave a relative viability (NCI-H1623; first compound 2 µM) of 0.744, a relative viability (NCI-H1623; first compound 6.325 µM) of 0.905 and a relative viability (NCI-H1623; first compound 20 µM) of 0.701. It also gave a relative viability (NCI-H1650; first compound 0.2 µM) of 1.45, a relative viability (NCI-H1650; first compound 0.6325 µM) of 1.03 and a relative viability (NCI-H1650; first compound 2 µM) of 1.1. For the same compound, the relative viability (NCI-H1650; first compound 6.325 µM) was 0.924, the relative viability (NCI-H1650; first compound 20 µM) was 0.364 and the relative viability (NCI-H1666; first compound 0.2 µM) was 0.959. For the same compound, the relative viability (NCI-H1666; first compound 0.6325 µM) was 0.906, the relative viability (NCI-H1666; first compound 2 µM) was 0.942 and the relative viability (NCI-H1666; first compound 6.325 µM) was 0.952. The relative viability (NCI-H1666; first compound 20 µM) was 0.908, the relative viability (NCI-H1703; first compound 0.2 µM) was 0.512 and the relative viability (NCI-H1703; first compound 0.6325 µM) was 0.368. It also gave a relative viability (NCI-H1703; first compound 2 µM) of 0.353, a relative viability (NCI-H1703; first compound 6.325 µM) of 0.388 and a relative viability (NCI-H1703; first compound 20 µM) of 0.0682. It also gave a relative viability (NCI-H1755; first compound 0.2 µM) of 1.02, a relative viability (NCI-H1755; first compound 0.6325 µM) of 0.932 and a relative viability (NCI-H1755; first compound 2 µM) of 0.809. The relative viability (NCI-H1755; first compound 6.325 µM) was 0.907, the relative viability (NCI-H1755; first compound 20 µM) was 0.867 and the relative viability (NCI-H2228; first compound 0.2 µM) was 0.973. It also gave a relative viability (NCI-H2228; first compound 0.6325 µM) of 0.938, a relative viability (NCI-H2228; first compound 2 µM) of 0.87 and a relative viability (NCI-H2228; first compound 6.325 µM) of 0.952. It also gave a relative viability (NCI-H2228; first compound 20 µM) of 0.0309.

In the case of `COCC1(CO)C(=O)C2CCN1CC2` (stereo unspecified) [PRIMA-1MET] + COc1cccc2cc(-c3nc([C@H]4CC[C@H](C(=O)O)CC4)n4ncnc(N)c34)[nH]c12 [OSI-027] (partner 0.5 µM), the relative viability (ABC-1; first compound 0.2 µM) is reported as 0.37, the relative viability (ABC-1; first compound 0.6325 µM) is reported as 0.401 and the relative viability (ABC-1; first compound 2 µM) is reported as 0.349. For the same compound, the relative viability (ABC-1; first compound 6.325 µM) was 0.48, the relative viability (ABC-1; first compound 20 µM) was 0.0792 and the relative viability (LK-2; first compound 0.2 µM) was 0.201. For the same compound, the relative viability (LK-2; first compound 0.6325 µM) was 0.186, the relative viability (LK-2; first compound 2 µM) was 0.155 and the relative viability (LK-2; first compound 6.325 µM) was 0.149. For the same compound, the relative viability (LK-2; first compound 20 µM) was 0.118, the relative viability (LOU-NH91; first compound 0.2 µM) was 0.806 and the relative viability (LOU-NH91; first compound 0.6325 µM) was 0.719. For the same compound, the relative viability (LOU-NH91; first compound 2 µM) was 0.589, the relative viability (LOU-NH91; first compound 6.325 µM) was 0.662 and the relative viability (LOU-NH91; first compound 20 µM) was 0.468. It also gave a relative viability (NCI-H1623; first compound 0.2 µM) of 0.374, a relative viability (NCI-H1623; first compound 0.6325 µM) of 0.405 and a relative viability (NCI-H1623; first compound 2 µM) of 0.445. It also gave a relative viability (NCI-H1623; first compound 6.325 µM) of 0.42, a relative viability (NCI-H1623; first compound 20 µM) of 0.303 and a relative viability (NCI-H1648; first compound 0.2 µM) of 0.24. The relative viability (NCI-H1648; first compound 0.6325 µM) was 0.252, the relative viability (NCI-H1648; first compound 2 µM) was 0.283 and the relative viability (NCI-H1648; first compound 6.325 µM) was 0.256. It also gave a relative viability (NCI-H1648; first compound 20 µM) of 0.249, a relative viability (NCI-H1650; first compound 0.2 µM) of 0.742 and a relative viability (NCI-H1650; first compound 0.6325 µM) of 0.664. It also gave a relative viability (NCI-H1650; first compound 2 µM) of 0.483, a relative viability (NCI-H1650; first compound 6.325 µM) of 0.636 and a relative viability (NCI-H1650; first compound 20 µM) of 0.0483. The relative viability (NCI-H1666; first compound 0.2 µM) was 0.791, the relative viability (NCI-H1666; first compound 0.6325 µM) was 0.87 and the relative viability (NCI-H1666; first compound 2 µM) was 0.827. The relative viability (NCI-H1666; first compound 6.325 µM) was 0.826, the relative viability (NCI-H1666; first compound 20 µM) was 0.714 and the relative viability (NCI-H1755; first compound 0.2 µM) was 0.664. The relative viability (NCI-H1755; first compound 0.6325 µM) was 0.668, the relative viability (NCI-H1755; first compound 2 µM) was 0.402 and the relative viability (NCI-H1755; first compound 6.325 µM) was 0.682. The relative viability (NCI-H1755; first compound 20 µM) was 0.673, the relative viability (NCI-H2228; first compound 0.2 µM) was 0.578 and the relative viability (NCI-H2228; first compound 0.6325 µM) was 0.462. For the same compound, the relative viability (NCI-H2228; first compound 2 µM) was 0.442, the relative viability (NCI-H2228; first compound 6.325 µM) was 0.481 and the relative viability (NCI-H2228; first compound 20 µM) was 0.0285.
